These results are taken from patent US20030100769A1, “Cyclic amidine compounds” (priority 2000, published 2003).

The target in test [1] is α1β1γδ subtype of nicotinic acetylcholine receptors (Rattus norvegicus, UniProt P18916+P25108+P25109+P25110). Description: biochemical. The format is binding. To be noted: for remaining activity at 100 µM: read-out: control % of [3H]-α-Bgt binding at 100 μM of test compound; for remaining activity at 1000 µM: read-out: control % of [3H]-α-Bgt binding at 1,000 μM of test compound. From the text:
The methods for evaluating the binding capabilities of the compounds at nicotinic acetylcholine receptors are different by subtypes of receptors. The binding capabilities of the compounds at α4β2 nicotinic acetylcholine receptors are examined using rat brain membrane obtained from whole homogenized brain, and determining the inhibiting rate of the compounds against [^3H]-cytisine binding to said brain membrane. Furthermore, the binding capabilities of the compounds at α1β1γδ nicotinic acetylcholine receptors are examined using homogenized rat muscle, and determining the inhibiting rate of the compounds against [^3H]-α-bungarotoxin binding to said muscle homogenate.
Binding Assays at α1β1γδ Subtype of Nicotinic Acetylcholine Receptors
The affinity of the compounds of the present invention to α1β1γδ subtype of nicotinic acetylcholine receptors was measured by the following method, which was modified method described by Garcha H. S., Thomas P., Spivak C.
(1) Preparation of Rat Skeletal Muscles Containing α1β1γδ Subtype of Nicotinic Acetylcholine Receptors
The substantially same animals described in the Biological Experiment 1 were used.
The isolation of α1β1γδ subtype of nicotinic acetylcholine receptors was performed as follow. That is, rat posterior skeletal muscles were isolated just after sacrificed by decapitation, washed with ice-cooled saline solution and then frozen at −80° C. with liquid nitrogen and stored till using. After thawing the frozen muscles, tissue was homogenized ([…]) with buffer solution [2.5 mM of sodium phosphate buffer (pH:7.2), 90 mM of NaCl, 2 mM of KCl, 1 mM of EDTA, 2 mM of benzamidine, 0.1 mM of benzethonium chloride, 0.1 mM of PMSF, 0.01% of sodium azide] in Waring blender (Waring blender 34BL97; WARING PRODUCTS DIVISION DYNAMICS CORPORATION OF AMERICA) for 60 seconds. The homogenate were centrifuged under 20,000×G for 60 minutes at 4° C. The supernatant was separated and the resulting pellet was added to the same buffer (1.5 ml/g wet weight), and homogenized under the same conditions. Triton X100 (2% w/v) was added and the mixture was stirred for 3 hours at 4° C. The centrifugation at 100,000×G for 60 minutes at 4° C. yielded the rat muscle extract as supernatant. This was stored at 4° C. for up to 4 weeks, and used for binding assays at receptors.
(2) Experiments of α1β1γδ Subtype of Nicotinic Acetylcholine Receptors Binding
Receptors binding experiments were performed as follow. That is, the extract of rat muscle containing 600-900 μg of protein was added to test tubes containing test compounds and incubated for 15 minutes at 37° C. Then, to this mixture was added 1 nM of [^3H]-α-bungarotoxin (α-Bgt) and further incubated for 2 hours. The samples were isolated by vacuum filtration onto Whatman GF/B filters, which were prerinsed with 0.5% polyethylenimine just prior to sample filtration, using Brandel multi manifold cell harvester. The filters were rapidly rinsed with washing solution (10 mM of KH2PO4, 150 mM of NaCl, pH 7.2, room temperature) (5×1 ml). The filters were counted in 3 ml of clearsol I (Nacalai Tesque Inc.). The determination of nonspecific binding was incubated in the presence of 1 μM α-Bgt. […] In the receptor binding experiments, said buffer solution was added for adjusting the final concentration of BSA to be 0.05%.
The analyses of the experimental results were conducted by the same way as described in the Biological Experiment 1.

The target in test [2] is T1, human α4β2 subtype of nicotinic acetylcholine receptors (Homo sapiens, UniProt P17787+P43681).
T1 construct: expressed in transfected cells; host or cells: Xenopus laevis oocytes injected with hnACh-R α4 and β2 cRNA (pSP64 polyA)
T1 sequence (P43681 29-627 limits assumed): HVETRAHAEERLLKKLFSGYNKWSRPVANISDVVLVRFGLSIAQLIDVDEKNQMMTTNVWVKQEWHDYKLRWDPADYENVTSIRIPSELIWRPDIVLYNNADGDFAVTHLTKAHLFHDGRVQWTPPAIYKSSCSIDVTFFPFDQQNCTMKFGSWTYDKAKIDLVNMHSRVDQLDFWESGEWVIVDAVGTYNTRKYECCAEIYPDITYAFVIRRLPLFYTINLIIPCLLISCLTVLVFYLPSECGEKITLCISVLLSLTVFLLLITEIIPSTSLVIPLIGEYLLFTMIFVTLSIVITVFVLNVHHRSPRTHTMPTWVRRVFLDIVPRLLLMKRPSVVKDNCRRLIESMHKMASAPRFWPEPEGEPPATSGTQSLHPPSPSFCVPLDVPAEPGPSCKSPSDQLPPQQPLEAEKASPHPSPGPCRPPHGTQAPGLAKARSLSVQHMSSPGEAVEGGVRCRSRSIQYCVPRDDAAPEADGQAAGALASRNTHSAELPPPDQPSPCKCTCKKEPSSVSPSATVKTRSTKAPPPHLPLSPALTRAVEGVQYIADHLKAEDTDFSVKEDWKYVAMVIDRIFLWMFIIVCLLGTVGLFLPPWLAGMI
T1 sequence (P17787 26-502): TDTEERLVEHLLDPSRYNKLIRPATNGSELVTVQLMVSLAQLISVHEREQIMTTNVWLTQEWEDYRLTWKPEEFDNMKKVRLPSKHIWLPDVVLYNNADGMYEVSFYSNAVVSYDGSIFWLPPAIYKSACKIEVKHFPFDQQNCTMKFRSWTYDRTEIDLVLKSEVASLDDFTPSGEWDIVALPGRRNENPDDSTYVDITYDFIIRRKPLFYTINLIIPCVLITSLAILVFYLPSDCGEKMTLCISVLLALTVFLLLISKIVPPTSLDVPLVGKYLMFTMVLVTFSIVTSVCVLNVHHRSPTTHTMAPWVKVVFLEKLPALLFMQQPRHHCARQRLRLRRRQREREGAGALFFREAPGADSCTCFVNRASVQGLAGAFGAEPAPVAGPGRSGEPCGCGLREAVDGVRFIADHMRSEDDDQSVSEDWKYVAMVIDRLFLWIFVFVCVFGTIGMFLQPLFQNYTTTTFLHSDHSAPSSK
Description: Agonist activities at human α4β2 subtype of nicotinic acetylcholine receptors expressed in Xenopus oocytes (membrane potential holding method). The format is cell-based. To be noted: for EC50: held at −50 mV, calculated in comparison with the reaction with 10 μM acetylcholine (100%), read-out: Agonist activity (ED50). The procedure: The agonist effect in human α4β2 subtype of nicotinic acetylcholine receptors are examined by using human nicotinic acetylcholine receptors prepared in oocytes of Xenopus laevis, which is injected with cRNA from the corresponding cloning cDNA of human α4 and β2 subunits of nicotinic acetylcholine receptors, and to measure the expression of the electric response by adding the test compounds to perfusion solution by means of membrane potential holding method.
Agonist Activities at Human α4β2 Subtype of Nicotinic Acetylcholine Receptors
(1) Preparation of cRNA of Human α4β2 Subtype of Nicotinic Acetylcholine Receptors
The obtained hnACh-R α4 cDNA and hnACh-R β2 cDNA were inserted to the cRNA expression vector (pSP64 polyA) having SP6 RNA promoter to construct hnACh-R α4/pSP64 polyA and hnACh-R β2/pSP64 polyA, respectively. After cutting from expression vector by restriction enzyme (EcoRI), transcription was performed by affecting SP6 RNA polymerase in the presence of cap analogues to obtain hnACh-R α4 cRNA and hnACh-R β2 cRNA, respectively.
(2) Expression of Human α4β2 Subtype Nicotinic Acetylcholine Receptors in Xenopus Oocytes
Oocytes were purchased from Kitanihonseibutsukyohzai Co., Ltd., which were already enucleated from Xenopus laevis, and used in this experiment.
The oocytes were treated with collagenase (Sigma type I; 1 mg/ml) in calcium-free modified Birth's solution (88 mM of NaCl, 1 mM of KCl, 2.4 mM of NaHCO3, 0.82 mM of MgSO4, 15 mM of HEPES, pH 7.6) under gently stirring at room temperature for 90 minutes, and washed out the enzyme from the tissue. Then, oocytes were separated from ovarian follicle by tweezers, and isolated oocytes were placed in antibiotics containing modified Birth's solution (88 mM of NaCl, 1 mM of KCl, 2.4 mM of NaHCO3, 0.82 mM of MgSO4, 15 mM of HEPES, pH 7.6, and 0.1 v/v % of mixture solution containing of penicillin and streptomycin for incubation; Sigma Co.). […] In oocytes, heterogeneous quintuple [(α4)2(β2)3] was composed by translation of injected cRNAs, and ion channel receptors were constructed on cell membrane.
(3) Agonist Activities at Human α4β2 Subtype of Nicotinic Acetylcholine Receptors
The recordings of responses at human α4β2 subtype of nicotinic acetylcholine receptors by means of membrane potential holding method were performed as follow. […] Test compounds were added to the perfusion solution, and recorded the peak strength of induced inward current. In order to normalize the responses of test compounds, the responses with acetylcholine (Ach) were recorded before and after application of the test compounds. Generally in the oocytes just after isolated, the response of intrinsic muscarinic acetylcholine receptors, which is inward current caused by activation of calcium dependence chloride ion channels with increase of the intracellular calcium concentration by stimulation of receptors, is observed. […] Therefore, the responses observed in oocytes with injection of hnACh-R α4 cRNA and hnACh-R β2 cRNA, i.e., the inward current induced by the intracellular influx of sodium ion according to the stimulation of receptors, would be the freshly observed responses of human α4β2 subtype nicotinic acetylcholine receptors.

Chain of α1β1γδ subtype of nicotinic acetylcholine receptors (P25109 24-501): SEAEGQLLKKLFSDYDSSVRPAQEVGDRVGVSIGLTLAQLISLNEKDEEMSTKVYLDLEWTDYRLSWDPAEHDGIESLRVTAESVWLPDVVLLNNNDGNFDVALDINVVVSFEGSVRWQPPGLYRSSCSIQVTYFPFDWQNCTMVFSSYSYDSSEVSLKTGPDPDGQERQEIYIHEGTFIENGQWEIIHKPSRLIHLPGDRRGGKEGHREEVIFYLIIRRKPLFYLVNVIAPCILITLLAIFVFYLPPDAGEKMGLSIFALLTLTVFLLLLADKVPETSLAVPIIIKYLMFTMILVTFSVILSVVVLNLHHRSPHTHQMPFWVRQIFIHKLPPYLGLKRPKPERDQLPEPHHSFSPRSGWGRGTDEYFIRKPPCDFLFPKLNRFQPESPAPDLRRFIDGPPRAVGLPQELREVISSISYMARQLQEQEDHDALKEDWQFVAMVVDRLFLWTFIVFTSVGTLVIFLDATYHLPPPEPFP
Chain of α1β1γδ subtype of nicotinic acetylcholine receptors (P25110 22-517): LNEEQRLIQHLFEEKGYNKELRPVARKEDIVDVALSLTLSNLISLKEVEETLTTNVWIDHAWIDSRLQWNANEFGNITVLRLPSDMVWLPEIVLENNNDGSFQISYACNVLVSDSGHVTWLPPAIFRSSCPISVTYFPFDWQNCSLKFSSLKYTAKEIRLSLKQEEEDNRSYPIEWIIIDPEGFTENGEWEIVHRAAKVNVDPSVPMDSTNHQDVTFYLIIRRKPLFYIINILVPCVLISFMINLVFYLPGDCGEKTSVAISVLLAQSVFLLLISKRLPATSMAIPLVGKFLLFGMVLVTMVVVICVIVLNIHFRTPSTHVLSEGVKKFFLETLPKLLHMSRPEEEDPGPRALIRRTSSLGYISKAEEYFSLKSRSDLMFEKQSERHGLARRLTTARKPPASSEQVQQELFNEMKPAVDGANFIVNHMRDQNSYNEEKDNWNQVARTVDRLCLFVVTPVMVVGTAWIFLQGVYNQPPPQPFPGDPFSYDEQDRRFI
Chain of α1β1γδ subtype of nicotinic acetylcholine receptors (P25108 21-457): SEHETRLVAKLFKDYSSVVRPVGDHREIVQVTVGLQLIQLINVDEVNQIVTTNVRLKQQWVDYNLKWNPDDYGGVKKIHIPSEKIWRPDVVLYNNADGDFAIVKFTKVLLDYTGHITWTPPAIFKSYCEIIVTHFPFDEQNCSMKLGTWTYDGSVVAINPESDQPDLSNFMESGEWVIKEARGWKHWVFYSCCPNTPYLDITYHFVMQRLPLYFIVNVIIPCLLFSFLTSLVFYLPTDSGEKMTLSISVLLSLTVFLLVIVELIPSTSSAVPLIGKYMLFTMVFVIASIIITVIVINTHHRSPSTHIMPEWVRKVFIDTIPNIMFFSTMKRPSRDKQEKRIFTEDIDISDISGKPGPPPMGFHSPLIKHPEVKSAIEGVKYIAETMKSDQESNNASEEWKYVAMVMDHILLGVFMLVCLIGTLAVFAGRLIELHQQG

For the compound `Clc1ccc(C2=NCCCN2)cn1` [Compound 2, 2-(6-chloro-3-pyridyl)-1,4,5,6-tetrahydropyrimidine], in test [1], the remaining activity at 100 µM was determined as 34% and the remaining activity at 1000 µM was 6%. In test [2], the EC50 is 3.4 µM.
For the compound `CN1CCN=C1c1ccc(Cl)nc1` [Compound 3, 2-(6-chloro-3-pyridyl)-1-methyl-2-imidazoline], in test [1], the remaining activity at 100 µM worked out at 34% and the remaining activity at 1000 µM was 5%. Moreover, in test [2], the EC50 is 43.8 µM.
With `Clc1ncc(C2=NCCCN2)s1` [Compound 22, 2-(2-chloro-5-thiazolyl)-1,4,5,6-tetrahydropyrimidine], in test [1], the remaining activity at 100 µM worked out at 23% and the remaining activity at 1000 µM is -4%. Besides, the “Agonist activity: control % by response at 100 μM of the test compound” value in test [2] (100 μM test compound, relative to 10 μM acetylcholine (100%)) was “(13.2%)”.
